Measured values as given in patent US20050220726A1, “Use of sugar esters in cosmetic and/or pharmaceutical preparations” (priority 2003, published 2005).

What was measured:
Format in all cases: cell-based
human keratinocytes = assay: Protecting cells against UVB radiation (cell DNA, LDH and PGE2 release); details: + UV-B 50 mJ/cm^2; for Cell DNA: blank = 100, control + UV-B = 33; for LDH released / PGE2 released: control + UV-B = 100
Description: UVB was selected as the stress factor because the rays produce cutaneous inflammation (erythemas, oedemas) by activating enzymes that release arachidonic acid, such as phospholipase A2 (PLA2) for example. […] The influence of UVB rays on keratinocytes was determined in vitro through the release of cytoplasmatic enzymes, such as LDH (lactate dehydrogenase) for example, which runs parallel to the cell damage and the formation of PGE2. […] The quantity of keratinocytes was determined after trypsination via a cell counter while the LDH concentration was enzymatically determined. The results are set out in Table 4, where they are expressed as the activity in %-rel. against a standard, and represent the mean value of two test series involving double determination.

[1] = tested on: Staphylococcus epidermidis; assay: Agar diffusion method, inhibition zones; details: filter paper with 20 μl test substance; 18 to 24 h at 37° C.
Description: (§1) The antibacterial activity of the test substances was tested by the diffusion method on agar plates or the agar dilution method. In this method, a round filter paper of defined diameter is first impregnated with the test solution and then applied to the surface of an agar plate inoculated beforehand with the test microorganisms. The size of the inhibition zones is then determined after defined times. In particular, it is possible by this method to determine the MIC (Minimum Inhibitory Concentration) as the lowest concentration of test substance with which complete inhibition of the microorganisms can be obtained.
(§2) Agar diffusion method. The inoculum was prepared using a fresh culture in a stationary growth phase (after ca. 18-24 h) in a BHI solution (brain-heart Infusion). The bacterial suspension was adjusted to 0.5 MacFarland units, corresponding to 1.5 10^8 colony-forming units (cfu)/ml; the suspension was then diluted with a sodium chloride solution (1:100) to adjust a value of 1.5 10^6 cfu/ml. Mueller-Hinton agar (Staphylococcus epidermidis, Staphylococcus aureus) and Wilkins-Chalgrens agar containing 5% by weight sheep's blood (Propionibacterium acnes) were then sterilized for 15 mins. at 121° C. and then placed in Petri dishes. 2 to 4 ml of the bacterial suspension were then added to the Petri dishes, followed by drying at room temperature. The filter papers were impregnated with 20 μl of the test substances and applied to the surface of the agar plates. The inoculated Petri dishes were incubated for 18 to 24 h at 37° C. (the Petri dishes containing Propionibacterium acnes under anaerobic conditions) and the antimicrobial activity was then determined by determination of the growth inhibition zones. The results are set out in Table 10 and represent the diameters of the inhibition zones in mm.

Staphylococcus aureus = assay: Agar diffusion method, inhibition zones; details: filter paper with 20 μl test substance; 18 to 24 h at 37° C.
Description: as §1, §2

Propionibacterium acnes = assay: Agar diffusion method, inhibition zones; details: filter paper with 20 μl test substance; 18 to 24 h at 37° C., anaerobic
Description: as §1, §2

Fructose caprate
Cell DNA (human keratinocytes; conc. 0.001 % w/v): 32 %-rel.
LDH released (human keratinocytes; conc. 0.001 % w/v): 68 %-rel.
PGE2 released (human keratinocytes; conc. 0.001 % w/v): 35 %-rel.
Cell DNA (human keratinocytes; conc. 0.003 % w/v): 140 %-rel.
LDH released (human keratinocytes; conc. 0.003 % w/v): 0 %-rel.
PGE2 released (human keratinocytes; conc. 0.003 % w/v): 0 %-rel.
Inhibition zones, Staphylococcus epidermidis [1]: 9 mm
Inhibition zones, Staphylococcus aureus (Staphylococcus aureus): 10 mm
Inhibition zones, Propionibacterium acnes (Propionibacterium acnes): 14 mm
